Source: ChEMBL document CHEMBL1949505, “Total synthesis and structure-activity relationships of new echinocandin-like antifungal cyclolipohexapeptides” (2012)
Bridge positions count the residues as written; N and C are the ends. Square brackets hold non-standard residues; d marks the D form. Peptide text beside a SMILES is read from it. * marks the point of attachment. 2Naphthoyl(6-heptyloxy) = CCCCCCCOc1ccc2cc(C(=O)*)ccc2c1; 2Naphthoyl(6-octyloxy) = CCCCCCCCOc1ccc2cc(C(=O)*)ccc2c1; X2 = CCCCCCCOc1ccc(-c2ccc(-c3ccc(C(=O)*)cc3)cc2)cc1; X1 = CCCOc1ccc(-c2ccc(-c3ccc(C(=O)*)cc3)cc2)cc1; Pro(4S-NH2) = N[C@@H]1CN[C@H](C(=O)O)C1; hTyr = N[C@@H](CCc1ccc(O)cc1)C(=O)O; Orn = NCCC[C@H](N)C(=O)O

Tests used:
Format in all cases: functional
Pichia kudriavzevii = assay: Antifungal activity against Candida krusei after 24 hrs by serial dilution method
Cryptococcus neoformans = assay: Antifungal activity against Cryptococcus neoformans after 72 hrs by serial dilution method
Aspergillus fumigatus = assay: Antifungal activity against Aspergillus fumigatus after 7 days by serial dilution method; conditions: 168 h
Candida albicans [1] = assay: Antifungal activity against Candida albicans after 24 hrs by serial dilution method
Candida tropicalis = assay: Antifungal activity against Candida tropicalis after 24 hrs by serial dilution method
Trichophyton rubrum = assay: Antifungal activity against Trichophyton rubrum after 7 days by serial dilution method; conditions: 168 h
Candida albicans [2] = assay: Ratio of caspofungin MIC to compound MIC for Candida albicans by serial dilution method
Candida parapsilosis = assay: Antifungal activity against Candida parapsilosis after 24 hrs by serial dilution method; conditions: Lodderomyces parapsilosis

| MIC80 (Pichia kudriavzevii) | MIC80 (Cryptococcus neoformans) | MIC80 (Aspergillus fumigatus) | MIC80 (Candida albicans [1]) | MIC80 (Candida tropicalis) | MIC80 (Trichophyton rubrum) | MIC80 (Candida parapsilosis) | Compound | Ratio (Candida albicans [2]) |
| --- | --- | --- | --- | --- | --- | --- | --- | --- |
| 0.5 µg/mL | 64 µg/mL | 1 µg/mL | 0.125 µg/mL | 16 µg/mL | 32 µg/mL | 4 µg/mL | CCCCCCCOc1ccc2cc(C(=O)N[C@H]3CCCNC(=O)[C@@H]4C[C@H](N)CN4C(=O)[C@H](CCCCN)NC(=O)[C@H](CCc4ccc(O)cc4)NC(=O)[C@@H]4CCCN4C(=O)[C@H]([C@@H](C)O)NC3=O)ccc2c1.Cc1ccc(S(=O)(=O)O)cc1 ({2Naphthoyl(6-heptyloxy)}-[Orn]TP[hTyr]K[Pro(4S-NH2)]; lactam 1-C) | 4 |
| 1 µg/mL | 16 µg/mL | 1 µg/mL | 0.25 µg/mL | 8 µg/mL | 16 µg/mL | 2 µg/mL | CCCCCCCOc1ccc(-c2ccc(-c3ccc(C(=O)N[C@H]4CCCNC(=O)[C@@H]5C[C@H](N)CN5C(=O)[C@H](CCCCN)NC(=O)[C@H](CCc5ccc(O)cc5)NC(=O)[C@@H]5CCCN5C(=O)[C@H]([C@@H](C)O)NC4=O)cc3)cc2)cc1.Cc1ccc(S(=O)(=O)O)cc1 (X2-[Orn]TP[hTyr]K[Pro(4S-NH2)]; lactam 1-C) | – |
| 0.5 µg/mL | 32 µg/mL | 2 µg/mL | 0.125 µg/mL | 8 µg/mL | 64 µg/mL | 4 µg/mL | CCCOc1ccc(-c2ccc(-c3ccc(C(=O)N[C@H]4CCCNC(=O)[C@@H]5C[C@H](N)CN5C(=O)[C@H](CCCN)NC(=O)[C@H](CCc5ccc(O)cc5)NC(=O)[C@@H]5CCCN5C(=O)[C@H]([C@@H](C)O)NC4=O)cc3)cc2)cc1.Cc1ccc(S(=O)(=O)O)cc1 (X1-[Orn]TP[hTyr][Orn][Pro(4S-NH2)]; lactam 1-C) | 4 |
| 2 µg/mL | 32 µg/mL | 1 µg/mL | 1 µg/mL | 16 µg/mL | 16 µg/mL | 4 µg/mL | CCCCCCCOc1ccc(-c2ccc(-c3ccc(C(=O)N[C@H]4CCCNC(=O)[C@@H]5C[C@H](N)CN5C(=O)[C@H](CCCCN)NC(=O)[C@H](CCc5ccc(O)cc5)NC(=O)[C@@H]5CCCN5C(=O)[C@H](C(C)C)NC4=O)cc3)cc2)cc1.Cc1ccc(S(=O)(=O)O)cc1 (X2-[Orn]VP[hTyr]K[Pro(4S-NH2)]; lactam 1-C) | – |

Further lines, the compound ahead of its results:

| Compound | MIC80 (Pichia kudriavzevii) | MIC80 (Cryptococcus neoformans) | MIC80 (Aspergillus fumigatus) | MIC80 (Candida albicans [1]) | MIC80 (Candida tropicalis) | MIC80 (Trichophyton rubrum) | MIC80 (Candida parapsilosis) | Ratio (Candida albicans [2]) |
| --- | --- | --- | --- | --- | --- | --- | --- | --- |
| CCCCCCCCOc1ccc2cc(C(=O)N[C@H]3CCCNC(=O)[C@@H]4C[C@H](N)CN4C(=O)[C@H]([C@H](C)O)NC(=O)[C@H](CCc4ccc(O)cc4)NC(=O)[C@@H]4C[C@H](N)CN4C(=O)[C@H]([C@@H](C)O)NC3=O)ccc2c1.Cc1ccc(S(=O)(=O)O)cc1 | 8 µg/mL | > 64 µg/mL | > 64 µg/mL | 2 µg/mL | 32 µg/mL | > 64 µg/mL | 32 µg/mL | – |
| CCCCCCCCOc1ccc2cc(C(=O)N[C@H]3CCCNC(=O)[C@@H]4C[C@H](N)CN4C(=O)[C@H](CCCN)NC(=O)[C@H](CCc4ccc(O)cc4)NC(=O)[C@@H]4CCCN4C(=O)[C@H](C(C)C)NC3=O)ccc2c1.Cc1ccc(S(=O)(=O)O)cc1 ({2Naphthoyl(6-octyloxy)}-[Orn]VP[hTyr][Orn][Pro(4S-NH2)]; lactam 1-C) | 2 µg/mL | 16 µg/mL | 1 µg/mL | 0.5 µg/mL | 16 µg/mL | 16 µg/mL | 2 µg/mL | – |
| CCCCCOc1ccc2cc(C(=O)N[C@H]3CCCNC(=O)[C@@H]4C[C@H](N)CN4C(=O)[C@H]([C@H](C)O)NC(=O)[C@H](CCc4ccc(O)cc4)NC(=O)[C@@H]4C[C@H](N)CN4C(=O)[C@H]([C@@H](C)O)NC3=O)ccc2c1.Cc1ccc(S(=O)(=O)O)cc1 | 8 µg/mL | > 64 µg/mL | > 64 µg/mL | 2 µg/mL | > 64 µg/mL | > 64 µg/mL | 32 µg/mL | – |
| CCCCCCCOc1ccc2cc(C(=O)N[C@H]3CCCNC(=O)[C@@H]4C[C@H](N)CN4C(=O)[C@H](CCCCN)NC(=O)[C@H](CCc4ccc(O)cc4)NC(=O)[C@@H]4CCCN4C(=O)[C@H](C(C)C)NC3=O)ccc2c1.Cc1ccc(S(=O)(=O)O)cc1 ({2Naphthoyl(6-heptyloxy)}-[Orn]VP[hTyr]K[Pro(4S-NH2)]; lactam 1-C) | 2 µg/mL | 32 µg/mL | 1 µg/mL | 0.5 µg/mL | 32 µg/mL | 32 µg/mL | 4 µg/mL | – |
